The text below walks through data of ChEMBL document CHEMBL1201862, “PubChem BioAssay data set” (2004).

Each structure is given as a SMILES string.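 Results reflect a 48-hour exposure of cells in 96-well plates to compound at five concentrations. GI50 is the concentration that inhibits growth by half.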 Activity calls are given as the source filed them. Cut-off read from the data, not from the text of the source: active = GI50 up to about 1.1 µM and inactive = higher.

As usually defined, the GI50 is the concentration at which growth is held to half of that of the control.

Test systems include SF-268; SF-295; SR; CCRF-CEM; UACC-62; MCF7; UO-31; K562; SK-MEL-5; HCT-15; HT-29; DU-145; OVCAR-4; HCC 2998; SK-OV-3; HOP-92; T47D; RPMI-8226; SF-539.
Holding throughout (experiment): DTP human tumour cell line panel, 48 h

As to `O=C(O)c1[nH]c(=O)[nH]c(=O)c1CN1CCCCC1`, the GI50 in the assay with SF-268 was > 100 µM (inactive); in the assay on SF-295 it was > 100 µM (inactive); in the assay with SR, > 100 µM (inactive); in the assay on CCRF-CEM, 0.0553 µM (active); in the assay on UACC-62, > 100 µM (inactive); in the assay on MCF7, > 100 µM (inactive). Besides, the GI50 with UO-31 was > 100 µM (inactive); in the assay with K562, > 100 µM (inactive); in the assay with SK-MEL-5, > 100 µM (inactive); in the assay with HCT-15, above 100 µM; in the assay on HT-29, > 100 µM (inactive); in the assay on DU-145 it was > 100 µM (inactive). For the same molecule, the GI50 with OVCAR-4, in the assay with HCC 2998, with SK-OV-3, in the assay on HOP-92, in the assay on T47D and with RPMI-8226 was > 100 µM (inactive) in each case.

For `Cc1ccc2c(ccc3[nH]cc(CNc4ccc(NS(C)(=O)=O)cc4)c32)n1`, the GI50 was 23 µM (inactive) in the assay with SF-268; 21.8 µM (inactive) with SF-295; 21.8 µM (inactive) in the assay with SR; 22.9 µM (inactive) in the assay with SF-539; 23.6 µM (inactive) with CCRF-CEM; 16.1 µM (inactive) with UACC-62. In addition, the GI50 in the assay with MCF7 is 19.3 µM (inactive); with UO-31, 37.7 µM (inactive); in the assay on K562, 18.7 µM (inactive); in the assay on SK-MEL-5 it was 18.6 µM (inactive); in the assay on HCT-15 it was 38.5 µM; in the assay on HT-29, 28.3 µM (inactive). For the same molecule, the GI50 with DU-145 is 18.7 µM (inactive); in the assay on OVCAR-4, 21.7 µM (inactive); in the assay with SK-OV-3, 27.7 µM (inactive); in the assay on HOP-92, 26.7 µM (inactive); with T47D, 12.3 µM (inactive); in the assay on RPMI-8226, 19.1 µM (inactive).

As to `CC1(C)CCN2C(=O)C34CCCC3CC21S4` (centres undefined), the GI50 in the assay with SF-268 is > 100 µM (inactive); in the assay with SF-295 it was > 100 µM (inactive); with SR it was > 100 µM (inactive); in the assay on SF-539 it was > 100 µM (inactive); in the assay on CCRF-CEM it was 78 µM (inactive); with UACC-62, > 100 µM (inactive). Also, the GI50 with MCF7 was > 100 µM (inactive); in the assay on UO-31, > 100 µM (inactive); in the assay on K562, > 100 µM (inactive); in the assay on SK-MEL-5 it was > 100 µM (inactive); with HCT-15, above 100 µM; in the assay on HT-29, > 100 µM (inactive). Also, the GI50 in the assay on DU-145, in the assay on OVCAR-4, in the assay with SK-OV-3, in the assay with HOP-92, with T47D and in the assay with RPMI-8226 was > 100 µM (inactive) each time.

Consider `CC1=NN(C(=O)CC(=O)Nc2cccc(C)c2)C(=O)C1/N=N/c1ccc(C(=O)O)cc1` (centres undefined), for which the GI50 with SF-268 was > 100 µM (inactive); in the assay with SF-295, > 100 µM (inactive); in the assay on SR it was 37.9 µM (inactive); in the assay with SF-539, > 100 µM (inactive); with CCRF-CEM, > 100 µM (inactive); with UACC-62, > 100 µM (inactive). Also, the GI50 in the assay on MCF7 is > 100 µM (inactive); with UO-31, 64.4 µM (inactive); in the assay with K562, > 100 µM (inactive); in the assay on SK-MEL-5 it was > 100 µM (inactive); in the assay on HCT-15, above 100 µM; in the assay on HT-29, > 100 µM (inactive). Further, the GI50 in the assay on DU-145 is > 100 µM (inactive); with OVCAR-4 it was > 100 µM (inactive); in the assay with HCC 2998 it was > 100 µM (inactive); in the assay with HOP-92, 34.9 µM (inactive); in the assay with T47D it was > 100 µM (inactive); in the assay on RPMI-8226 it was > 100 µM (inactive).

Consider `CC1(C)OC2C(CO)OC(n3ccc(N)nc3=O)C2O1` (centres undefined), for which the GI50 in the assay with SF-268, in the assay with SF-295, in the assay on SR, in the assay on SF-539, with CCRF-CEM and in the assay with UACC-62 was > 100 µM (inactive) throughout. For the same molecule, the GI50 in the assay with MCF7 is > 100 µM (inactive); with UO-31, > 100 µM (inactive); with K562 it was > 100 µM (inactive); with SK-MEL-5 it was > 100 µM (inactive); with HCT-15 it was above 100 µM; in the assay on DU-145 it was > 100 µM (inactive). The GI50 in the assay on HCC 2998, in the assay on SK-OV-3, with HOP-92, in the assay with T47D and in the assay with RPMI-8226 was > 100 µM (inactive) in each case.

Turning to `CSc1ccc(/C=C2\N=C(c3ccccc3)N(/N=C3\C(=O)Nc4ccccc43)C2=O)cc1`, the GI50 is > 100 µM (inactive) with SF-268; > 100 µM (inactive) with SF-295; 22.6 µM (inactive) with SR; > 100 µM (inactive) in the assay on SF-539; 92.5 µM (inactive) in the assay on CCRF-CEM; > 100 µM (inactive) in the assay with UACC-62. Further, the GI50 is > 100 µM (inactive) in the assay with MCF7; > 100 µM (inactive) in the assay on UO-31; > 100 µM (inactive) in the assay on K562; > 100 µM (inactive) in the assay with SK-MEL-5; above 100 µM in the assay on HCT-15; > 100 µM (inactive) in the assay on HT-29. The GI50 in the assay on DU-145, in the assay with OVCAR-4, with HCC 2998, in the assay on SK-OV-3, in the assay on HOP-92 and with T47D was > 100 µM (inactive) throughout.

As to `CCCCCCCCCCCCCCCCNc1ccn(C2CC(OP(=O)(O)OCC3OC(n4cc(CC)c(=O)[nH]c4=O)CC3O)C(CO)O2)c(=O)n1` (centres undefined), the GI50 in the assay on SF-268 is 15.3 µM (inactive); with SF-295 it was 18.7 µM (inactive); in the assay on SR, 22.4 µM (inactive); in the assay with SF-539 it was 18.4 µM (inactive); in the assay on UACC-62, 18 µM (inactive); in the assay with MCF7 it was 32.5 µM (inactive). In addition, the GI50 in the assay on UO-31 was 19.2 µM (inactive); with K562, 20.4 µM (inactive); in the assay with SK-MEL-5, 2.29 µM (inactive); in the assay with HCT-15 it was 28.1 µM; in the assay with HT-29, 21.6 µM (inactive); in the assay on DU-145, 31.8 µM (inactive). In addition, the GI50 in the assay on OVCAR-4 is > 100 µM (inactive); with HCC 2998 it was 24.5 µM (inactive); with SK-OV-3, 27.3 µM (inactive); with HOP-92, 48.4 µM (inactive); in the assay with T47D, 44.2 µM (inactive); with RPMI-8226, 17.8 µM (inactive).

With `COc1ccc(-c2cc(-c3ccc(Nc4ccnc5cc(Cl)ccc45)cc3)[nH]c(=O)c2C#N)cc1`, the GI50 in the assay on SF-268, in the assay on SF-295, with SR, with SF-539, in the assay with UACC-62 and with MCF7 was > 100 µM (inactive) in each case. The GI50 with UO-31 was > 100 µM (inactive); in the assay with K562, > 100 µM (inactive); in the assay on HCT-15 it was above 100 µM; in the assay with DU-145, > 100 µM (inactive); with OVCAR-4 it was > 100 µM (inactive); with HCC 2998, > 100 µM (inactive). The GI50 in the assay on SK-OV-3, with HOP-92, in the assay with T47D and in the assay with RPMI-8226 was > 100 µM (inactive) in each case.

Turning to `O=C(/C=C/c1cccc(Oc2ccccc2)c1)NCc1ccc(C(=O)NCCc2ccccc2)cc1`, the GI50 in the assay with SF-268 was 33.5 µM (inactive); in the assay with SF-295 it was > 100 µM (inactive); with SR, > 100 µM (inactive); in the assay with SF-539, 14.8 µM (inactive); in the assay with UACC-62 it was > 100 µM (inactive); in the assay with MCF7, > 100 µM (inactive). The GI50 is > 100 µM (inactive) with UO-31; > 100 µM (inactive) in the assay on K562; > 100 µM (inactive) with SK-MEL-5; above 100 µM with HCT-15; 16.9 µM (inactive) in the assay on HT-29; > 100 µM (inactive) in the assay with DU-145. The GI50 in the assay with OVCAR-4 was 58.5 µM (inactive); with HCC 2998, > 100 µM (inactive); in the assay on SK-OV-3 it was > 100 µM (inactive); in the assay on HOP-92, > 100 µM (inactive); in the assay on T47D, > 100 µM (inactive); with RPMI-8226 it was > 100 µM (inactive).

In the case of `CCOC(=O)C1=CNC(C(=O)OCC)C1c1cccn1-c1ccccc1` (centres undefined), the GI50 is 31.3 µM (inactive) in the assay on SF-268; 24.5 µM (inactive) in the assay with SF-295; 24.8 µM (inactive) with SR; 20.4 µM (inactive) with SF-539; 29.3 µM (inactive) with CCRF-CEM; 24.4 µM (inactive) in the assay with UACC-62. Also, the GI50 with MCF7 is 31.9 µM (inactive); in the assay with UO-31, 20.7 µM (inactive); with K562, 32.8 µM (inactive); with SK-MEL-5 it was 17.5 µM (inactive); with HCT-15 it was 40.2 µM; in the assay with HT-29, 23 µM (inactive). For the same molecule, the GI50 in the assay with DU-145 was 41.3 µM (inactive); with OVCAR-4, 46.6 µM (inactive); in the assay on HCC 2998 it was 28.7 µM (inactive); in the assay on HOP-92, 16.3 µM (inactive); in the assay with T47D, 25.8 µM (inactive).

Take `O=C(O)C(F)(F)C(F)(F)C(F)(F)C(F)(F)C(=O)O`: the GI50 in the assay with SF-268, in the assay on SF-295, with SR, in the assay with CCRF-CEM, in the assay with UACC-62 and with MCF7 was > 100 µM (inactive) in each case. Also, the GI50 is > 100 µM (inactive) in the assay on UO-31; > 100 µM (inactive) in the assay on K562; > 100 µM (inactive) in the assay on SK-MEL-5; above 100 µM in the assay with HCT-15; > 100 µM (inactive) in the assay with HT-29; > 100 µM (inactive) with DU-145. Further, the GI50 in the assay with OVCAR-4, with HCC 2998, in the assay on SK-OV-3, with HOP-92, with T47D and in the assay with RPMI-8226 was > 100 µM (inactive) throughout.
